For one assay, the target named is Human Cot (Homo sapiens (Human), UniProt P41279). As to the kind of experiment: High Throughput Cot Biochemical Assay. The following applies: IC50 HTRF, Cot HTRF (TR-FRET) biochemical assay. In general terms: TR-FRET usually uses a lanthanide donor and a delayed reading to cut background.
The test system of a further assay is TNFα. Put plainly: Cot Monocyte TNFα Cell Based Assay. The following applies: Homo sapiens, Monocyte, read-out: EC50 TNF, LPS-stimulated human monocytes, TNFα.

Human Cot, sequence (P41279 30-397): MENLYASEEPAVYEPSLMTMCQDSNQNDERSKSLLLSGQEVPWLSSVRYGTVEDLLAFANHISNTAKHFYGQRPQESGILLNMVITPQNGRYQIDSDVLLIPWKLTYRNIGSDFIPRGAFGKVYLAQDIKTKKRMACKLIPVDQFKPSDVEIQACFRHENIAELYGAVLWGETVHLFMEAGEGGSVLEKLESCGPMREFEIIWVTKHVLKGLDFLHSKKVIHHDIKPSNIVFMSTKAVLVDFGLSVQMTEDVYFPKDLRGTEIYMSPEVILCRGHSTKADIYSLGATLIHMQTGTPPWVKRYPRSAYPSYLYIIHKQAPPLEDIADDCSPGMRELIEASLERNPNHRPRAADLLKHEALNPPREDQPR

For the compound `CC(=O)c1cc(N[C@H](c2cn(C3(C(F)(F)F)CC3)nn2)c2cccc3ncsc23)cc2c(NCC(C)(C)C)c(C#N)cnc12` [Example 453, (S)-8-acetyl-6-((benzo[d]thiazol-7-yl(1-(1-(trifluoromethyl)cyclopropyl)-1H-1,2,3-triazol-4-yl)methyl)amino)-4-(neopentylamino)quinoline-3-carbonitrile], the IC50 – broadly, the concentration at which inhibition is half-maximal – at Human Cot is 9 nM. In the assay on TNFα, the EC50 (usually the concentration that produces a half-maximal response) was 184 nM.

Turning to `Cc1nc(F)ccc1[C@H](Nc1cc(C#N)c2ncc(C#N)c(NCC(C)(C)C)c2c1)c1cn(C2CC2)nn1` [Example 454, (S)-6-(((1-cyclopropyl-1H-1,2,3-triazol-4-yl)(6-fluoro-2-methylpyridin-3-yl)methyl)amino)-4-(neopentylamino)-quinoline-3,8-dicarbonitrile], inhibition at Human Cot was half-maximal at 2 nM (IC50). In addition, in the assay on TNFα, the EC50 was 32 nM.

For the compound `CC(C)(C)ONc1c(C#N)cnc2c(C#N)cc(N[C@H](c3cn(C4CC4)nn3)c3cccc4ncsc34)cc12` [Example 456, (S)-6-((benzo[d]thiazol-7-yl(1-cyclopropyl-1H-1,2,3-triazol-4-yl)methyl)amino)-4-(tert-butoxyamino)quinoline-3,8-dicarbonitrile], the IC50 at Human Cot turned out to be 51 nM. For the same compound, the EC50 in the assay with TNFα was found to be 1000 nM.

Regarding `CC(C)(C)ONc1c(C#N)cnc2c(I)cc(N[C@H](c3cn(C4CC4)nn3)c3cccc4ncsc34)cc12` [Example 457, (S)-6-((benzo[d]thiazol-7-yl(1-cyclopropyl-1H-1,2,3-triazol-4-yl)methyl)amino)-4-(tert-butoxyamino)-8-iodoquinoline-3-carbonitrile], the IC50 at Human Cot came out at 315 nM. For the same compound, the EC50 with TNFα worked out at 1000 nM.

`Cn1cnc2cccc([C@H](Nc3cc(Cl)c4ncc(C#N)c(NCC(C)(C)C)c4c3)c3cn(C4CC4)nn3)c21` [Example 459, (S)-8-chloro-6-(((1-cyclopropyl-1H-1,2,3-triazol-4-yl)(1-methyl-1H-benzo[d]imidazol-7-yl)methyl)amino)-4-(neopentylamino)quinoline-3-carbonitrile] returned an IC50 against Human Cot of 3 nM. Besides, in the assay with TNFα, the EC50 was 50 nM.

As to `CC(C)(C)CNc1c(C#N)cnc2c(C#N)cc(N[C@H](c3cn(CC(F)(F)F)nn3)c3cccc4ncsc34)cc12` [Example 460, (S)-6-((benzo[d]thiazol-7-yl(1-(2,2,2-trifluoroethyl)-1H-1,2,3-triazol-4-yl)methyl)amino)-4-(neopentylamino)-quinoline-3,8-dicarbonitrile], the IC50 against Human Cot is 5 nM. Besides, the EC50 in the assay with TNFα worked out at 156 nM.

In turn, `CC(C)(C)CNc1c(C#N)cnc2c(Cl)cc(N[C@H](c3cn(C4(C(F)(F)F)CC4)nn3)c3cccc4ncccc34)cc12` [Example 461, (S)-8-chloro-4-(neopentylamino)-6-((quinolin-5-yl(1-(1-(trifluoromethyl)-cyclopropyl)-1H-1,2,3-triazol-4-yl)methyl)amino)quinoline-3-carbonitrile] returned an IC50 against Human Cot of 17 nM. In the assay with TNFα, the EC50 was 154 nM.

`CC(C)(C)CNc1c(C#N)cnc2c(Cl)cc(N[C@H](c3cn(C4(C(F)(F)F)CC4)nn3)c3cccc4cnccc34)cc12` [Example 462, (S)-8-chloro-6-((isoquinolin-5-yl(1-(1-(trifluoromethyl)cyclopropyl)-1H-1,2,3-triazol-4-yl)methyl)amino)-4-(neopentylamino)quinoline-3-carbonitrile] yielded an IC50 against Human Cot of 162 nM. Moreover, the EC50 in the assay with TNFα came out at 8770 nM.

On to `CC(C)(C)CNc1c(C#N)cnc2c(Cl)cc(N[C@H](c3cn(C4(C(N)=O)CCC4)nn3)c3cccc4ncsc34)cc12` [Example 463, (S)-1-(4-(benzo[d]thiazol-7-yl((8-chloro-3-cyano-4-(neopentylamino)quinolin-6-yl)amino)methyl)-1H-1,2,3-triazol-1-yl)cyclobutane-1-carboxamide], for which the IC50 at Human Cot amounted to 2 nM. Further, the EC50 with TNFα came to 63 nM.

For the compound `CC(C)(C)CNc1c(C#N)cnc2c(C#N)cc(N[C@H](c3cn(C4(c5ccncc5)CC4)nn3)c3cccc4ncsc34)cc12` [Example 464, (S)-6-((benzo[d]thiazol-7-yl(1-(1-(pyridin-4-yl)cyclopropyl)-1H-1,2,3-triazol-4-yl)methyl)amino)-4-(neopentylamino)-quinoline-3,8-dicarbonitrile], on Human Cot, the IC50 came to 1 nM. For the same compound, the EC50 with TNFα worked out at 16 nM.

In turn, `CC(C)(C)CNc1c(C#N)cnc2c(C#N)cc(N[C@H](c3cn(C4(CO)CC4)nn3)c3cccc4ncsc34)cc12` [Example 465, (S)-6-((benzo[d]thiazol-7-yl(1-(1-(hydroxymethyl)cyclopropyl)-1H-1,2,3-triazol-4-yl)methyl)amino)-4-(neopentylamino)quinoline-3,8-dicarbonitrile] registered an IC50 against Human Cot of 2 nM. In the assay on TNFα, the EC50 worked out at 155 nM.

In turn, `CC(C)(C)CNc1c(C#N)cnc2c(Cl)cc(N[C@H](c3cn(C4CC4)nn3)c3cncc4cnccc34)cc12` [Example 466, (S)-8-chloro-6-(((1-cyclopropyl-1H-1,2,3-triazol-4-yl)(2,7-naphthyridin-4-yl)methyl)amino)-4-(neopentylamino)-quinoline-3-carbonitrile] yielded a concentration for half-maximal inhibition (IC50) on Human Cot of 28 nM. In addition, the EC50 with TNFα stood at 926 nM.

In the case of `CC(C)(C)CNc1c(C#N)cnc2c(C#N)cc(N[C@H](c3cn(C4CC4)nn3)c3cccc4cnccc34)cc12` [Example 468, (S)-6-(((1-cyclopropyl-1H-1,2,3-triazol-4-yl)(isoquinolin-5-yl)methyl)amino)-4-(neopentylamino)quinoline-3,8-dicarbonitrile], at Human Cot, the IC50 came out at 1 nM. Moreover, in the assay with TNFα, the EC50 worked out at 18 nM.

The compound `CC(C)(C)CNc1c(C#N)cnc2c(C#N)cc(N[C@H](c3cn(C4(C(F)(F)F)CC4)nn3)c3cccc4ncccc34)cc12` [Example 469, (S)-4-(neopentylamino)-6-((quinolin-5-yl(1-(1-(trifluoromethyl)-cyclopropyl)-1H-1,2,3-triazol-4-yl)methyl)amino)quinoline-3,8-dicarbonitrile] gave an IC50 on Human Cot of 4 nM. The EC50 in the assay with TNFα came out at 69 nM.

`CC(C)(C)CNc1c(C#N)cnc2c(C#N)cc(N[C@H](c3cn(C4(C(F)(F)F)CC4)nn3)c3cccc4cnccc34)cc12` [Example 470, (S)-6-((isoquinolin-5-yl(1-(1-(trifluoromethyl)cyclopropyl)-1H-1,2,3-triazol-4-yl)methyl)amino)-4-(neopentylamino)quinoline-3,8-dicarbonitrile] yielded an IC50 at Human Cot of 2 nM. In addition, in the assay on TNFα, the EC50 was 46 nM.

`Cc1nc(F)ccc1[C@H](Nc1cc(C#N)c2ncc(C#N)c(NCC(C)(C)C)c2c1)c1cn(C2(C(F)(F)F)CC2)nn1` [Example 471, (S)-6-(((6-fluoro-2-methylpyridin-3-yl)(1-(1-(trifluoromethyl)cyclopropyl)-1H-1,2,3-triazol-4-yl)methyl)amino)-4-(neopentyl-amino)quinoline-3,8-dicarbonitrile] showed an IC50 on Human Cot of 3 nM. In the assay with TNFα, the EC50 is 45 nM.

In turn, `CC(C)(C)CNc1c(C#N)cnc2c(C#N)cc(N[C@H](c3cn(C4(C(F)(F)F)CC4)nn3)c3cccc4[nH]ncc34)cc12` [Example 472, (S)-6-(((1H-indazol-4-yl)(1-(1-(trifluoro-methyl)cyclopropyl)-1H-1,2,3-triazol-4-yl)methyl)amino)-4-(neopentylamino)-quinoline-3,8-dicarbonitrile] gave an IC50 against Human Cot of 4 nM. Besides, in the assay with TNFα, the EC50 is 78 nM.

Compound `Cc1nc(F)ccc1[C@H](Nc1cc(C#N)c2ncc(C#N)c(NCC(C)(C)C)c2c1)c1cn(C2(C(F)F)CC2)nn1` [Example 473, (S)-6-(((1-(1-(difluoromethyl)cyclopropyl)-1H-1,2,3-triazol-4-yl)(6-fluoro-2-methylpyridin-3-yl)methyl)amino)-4-(neopentylamino)quinoline-3,8-dicarbonitrile] registered an IC50 at Human Cot of 2 nM. For the same compound, the EC50 with TNFα stood at 26 nM.

At Human Cot, `CC1(C)COCC[C@H]1Nc1c(C#N)cnc2c(C#N)cc(N[C@H](c3cn(C4(C(F)(F)F)CC4)nn3)c3cccc4ncsc34)cc12` [Example 474, 6-(((S)-benzo[d]thiazol-7-yl(1-(1-(trifluoromethyl)cyclopropyl)-1H-1,2,3-triazol-4-yl)methyl)amino)-4-(((R)-3,3-dimethyltetrahydro-2H-pyran-4-yl)amino)quinoline-3,8-dicarbonitrile] showed an IC50 of 2 nM. In addition, in the assay on TNFα, the EC50 was determined as 26 nM.

Compound `CC1(C)COCC[C@@H]1Nc1c(C#N)cnc2c(C#N)cc(N[C@H](c3cn(C4(C(F)(F)F)CC4)nn3)c3cccc4ncsc34)cc12` [Example 475, 6-(((S)-benzo[d]thiazol-7-yl(1-(1-(trifluoromethyl)cyclopropyl)-1H-1,2,3-triazol-4-yl)methyl)amino)-4-(((S)-3,3-dimethyltetrahydro-2H-pyran-4-yl)amino)quinoline-3,8-dicarbonitrile] registered an IC50 against Human Cot of 20 nM. The EC50 with TNFα amounted to 258 nM.

Take `Cc1nc(F)ccc1[C@H](Nc1cc(Cl)c2ncc(C#N)c(NCC(C)(C)C)c2c1)c1cn(C2(C(N)=O)CC2)nn1` [Example 477, (S)-1-(4-(((8-chloro-3-cyano-4-(neopentylamino)quinolin-6-yl)amino)(6-fluoro-2-methylpyridin-3-yl)methyl)-1H-1,2,3-triazol-1-yl)cyclopropane-1-carboxamide]: at Human Cot, the IC50 stood at 2 nM. The EC50 with TNFα was determined as 185 nM.

Regarding `Cc1nc(F)ccc1[C@H](Nc1cc(Cl)c2ncc(C#N)c(NCC(C)(C)C)c2c1)c1cn(C2(C#N)CCC2)nn1` [Example 479, (S)-8-chloro-6-(((1-(1-cyanocyclobutyl)-1H-1,2,3-triazol-4-yl)(6-fluoro-2-methylpyridin-3-yl)methyl)amino)-4-(neopentylamino)quinoline-3-carbonitrile], the midpoint of inhibition on Human Cot, the IC50, lay at 5 nM. For the same compound, the EC50 with TNFα amounted to 78 nM.

Compound `Cc1nc(F)ccc1[C@H](Nc1cc(Cl)c2ncc(C#N)c(NCC(C)(C)C)c2c1)c1cn(C2(C)CC2)nn1` [Example 480, (S)-8-chloro-6-(((6-fluoro-2-methylpyridin-3-yl)(1-(1-methylcyclopropyl)-1H-1,2,3-triazol-4-yl)methyl)amino)-4-(neopentylamino)-quinoline-3-carbonitrile] returned an IC50 against Human Cot of 2 nM. Besides, the EC50 in the assay on TNFα worked out at 60 nM.
